Experimental findings from patent US20260207755A1, “TARGETED PROTEIN DEGRADERS OF INDOLEAMINE 2,3-DIOXYGENASE 1 (IDO1)” (Northwestern University, priority 2022, published 2026) are described below.

Test [1] concerns the target T1, IDO1-PROTAC-CRBN ternary complex (Homo sapiens, UniProt P14902+Q96SW2).
T1 construct: purchased Active Motif (IDO1); Sino Biological (CRBN) 81031 (IDO1); none given for CRBN
Briefly: BLI IDO1-PROTAC-CRBN ternary complex. Format: binding. Conditions: IDO1 on NiNTA sensors, PROTAC pre-incubated with 25 molar excess of CRBN, 1:1 kinetic model. As to the method:
(§1) FIGS. 13A-13C show mechanistic understanding of IDO1-PROTAC-induced IDO1 degradation. […] Data sets fitted globally with a 1:1 kinetic model. FIG. 13B is BLI sensorgrams showing association and dissociation of compound NU227164 to CRBN protein pre-immobilized on AR2G sensors. Binding experiments and data fitting were performed as described above. FIG. 13C is BLI sensorgrams for the IDO1-NU227164-CRBN ternary complex. IDO1 protein was loaded onto NiNTA biosensors. IDO1 was pre-immobilized on NI NTA sensors, and binding of compound NU227164 preincubated with CRBN was monitored in the association step; next, the sensors were moved into reaction buffer in order monitor dissociation. As indicated in the legend, each trace corresponds to a different concentration of NU227164. Data sets fitted globally with a 1:1 kinetic model. No binding was detected between CRBN and IDO1 in the absence of NU227164 (trace “CRBN only”).
(§2) FIGS. 14A-14C illustrate mechanistic understanding of DO1-PROTAC-induced IDO1 degradation. […] The equilibrium dissociation constant (Kd) was obtained by fitting the steady state data (Req as a function of compound concentration) with a 1:1 binding model. FIG. 14B is BLI sensorgrams showing association and dissociation of compound NU227168 to CRBN protein pre-immobilized on AR2G sensors. Binding experiments and data fitting were performed as described above. FIG. 14C is BLI sensorgrams for the IDO1-NU227168-CRBN ternary complex. IDO1 protein was loaded onto NiNTA biosensors. IDO1 was pre-immobilized on NI NTA sensors, and binding of compound NU227168 preincubated with CRBN was monitored in the association step; next, the sensors were moved into reaction buffer in order monitor dissociation. As indicated in the legend, each trace corresponds to a different concentration of NU227168. Data sets fitted globally with a 1:1 kinetic model. No binding was detected between CRBN and IDO1 in the absence of NU227168 (trace “CRBN only”).
(§3) FIGS. 15A-15C show mechanistic understanding of IDO1-PROTAC-induced IDO1 degradation. […] The equilibrium dissociation constant (Kd) was obtained by fitting the steady state data (Req as a function of compound concentration) with a 1:1 binding model. FIG. 15B is BLI sensorgrams showing association and dissociation of compound NU227191 to CRBN protein pre-immobilized on AR2G sensors. Binding experiments and data fitting were performed as described above. FIG. 15C is BLI sensorgrams for the IDO1-NU227191-CRBN ternary complex. IDO1 protein was loaded onto NiNTA biosensors. IDO1 was pre-immobilized on NI NTA sensors, and binding of compound NU227191 preincubated with CRBN was monitored in the association step; next, the sensors were moved into reaction buffer in order monitor dissociation. As indicated in the legend, each trace corresponds to a different concentration of NU227191. Data sets fitted globally with a 1:1 kinetic model. No binding was detected between CRBN and IDO1 in the absence of NU227191 (trace “CRBN only”).
(§4) FIGS. 16A-16C show mechanistic understanding of IDO1-PROTAC-induced IDO1 degradation. […] The equilibrium dissociation constant (Kd) was obtained by fitting the steady state data (Req as a function of compound concentration) with a 1:1 binding model. FIG. 16B is BLI sensorgrams showing association and dissociation of compound NU227199 to CRBN protein pre-immobilized on AR2G sensors. Binding experiments and data fitting were performed as described above. FIG. 16C is BLI sensorgrams for the IDO1-NU227199-CRBN ternary complex. IDO1 protein was loaded onto NiNTA biosensors. IDO1 was pre-immobilized on NI NTA sensors, and binding of compound NU227199 preincubated with CRBN was monitored in the association step; next, the sensors were moved into reaction buffer in order monitor dissociation. As indicated in the legend, each trace corresponds to a different concentration of NU227199. Data sets fitted globally with a 1:1 kinetic model. […]

The target in a further test is T2, cereblon (CRBN) protein (Homo sapiens, UniProt Q96SW2).
T2 construct: purchased Sino Biological
T2 sequence (Q96SW2 whole entry): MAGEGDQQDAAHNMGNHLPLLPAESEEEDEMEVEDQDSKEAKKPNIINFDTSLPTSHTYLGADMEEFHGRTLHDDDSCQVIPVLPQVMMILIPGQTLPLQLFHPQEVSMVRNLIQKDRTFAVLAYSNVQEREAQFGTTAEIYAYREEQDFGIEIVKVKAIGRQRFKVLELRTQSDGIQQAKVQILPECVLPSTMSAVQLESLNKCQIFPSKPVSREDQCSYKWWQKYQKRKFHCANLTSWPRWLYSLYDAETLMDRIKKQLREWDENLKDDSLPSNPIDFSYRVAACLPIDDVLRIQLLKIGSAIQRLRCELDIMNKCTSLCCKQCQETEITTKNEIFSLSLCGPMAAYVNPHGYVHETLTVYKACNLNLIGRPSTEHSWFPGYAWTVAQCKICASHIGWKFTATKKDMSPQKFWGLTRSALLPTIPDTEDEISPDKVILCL
Briefly: BLI binary binding of IDO1-PROTAC to immobilized CRBN. Conditions: CRBN amine coupled to AR2G sensors. As to the method:
as §1, §2, §3, §4

Test [2] has as its target T3, 6×His tagged recombinant IDO1 protein (Homo sapiens, UniProt P14902).
T3 construct: purchased Active Motif 81031
The test can be described thus: BLI binary binding of IDO1-PROTAC to immobilized IDO1. Conditions: IDO1 on Ni-NTA sensors, PBS+0.5% DMSO pH 7.4, 30° C. As to the method:
as §1, §2, §3, §4

The target in another test is T4, IDO1 in GBM43 cells (Homo sapiens, UniProt P14902).
T4 construct: endogenous in cells; host or cells: GBM43 cells
T4 sequence (P14902 whole entry): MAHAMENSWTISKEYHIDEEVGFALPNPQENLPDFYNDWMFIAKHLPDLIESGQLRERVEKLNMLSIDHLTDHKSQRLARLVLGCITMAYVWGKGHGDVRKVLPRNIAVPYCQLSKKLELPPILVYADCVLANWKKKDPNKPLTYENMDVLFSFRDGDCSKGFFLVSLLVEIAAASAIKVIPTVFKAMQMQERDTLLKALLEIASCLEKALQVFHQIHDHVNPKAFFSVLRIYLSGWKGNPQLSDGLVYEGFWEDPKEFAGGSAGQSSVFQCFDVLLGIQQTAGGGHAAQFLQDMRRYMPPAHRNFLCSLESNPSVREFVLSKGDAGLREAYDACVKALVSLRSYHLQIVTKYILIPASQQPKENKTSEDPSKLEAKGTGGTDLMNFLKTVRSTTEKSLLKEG
Briefly: PROTAC-induced IDO1 degradation in GBM43 cells by Western blot. Conditions: 24 h. The class given is cell-based. The procedure: (§5) FIGS. 20A-20E show biological activity of compounds NU227326 and NU227327.
(§6) FIGS. 22A-22D show determination of IDO1 degrading potency of NU227326.
(§7) Protein samples were prepared by lysing the cells in RIPA buffer (Sigma-Aldrich, Cat #R0278) supplemented with protease and phosphatase inhibitors on ice for 30 min. Cell lysates were clarified by centrifugation at 16,000×g for 15 min at 4° C. Equal amounts of proteins as quantified by bicinchoninic acid assay (Pierce) were separated on an SDS-polyacrylamide gel electrophoresis and proteins were electrophoretically transferred onto a polyvinylidene fluoride (PVDF) membrane using a Trans-Blot Turbo Transfer System (Bio-Rad, Hercules, CA, USA). The blotted membranes were blocked for 1 h at room temperature in blocking buffer containing 5% (w/v) nonfat dry milk in Tris-buffered saline and 0.1% Tween 20 (TBS-T) followed by incubating the membranes overnight at 4° C. with primary antibodies against a target protein diluted at a standardized concentration in blocking buffer. […] The protein bands were detected using an enhanced chemiluminescence reagent (SuperSignal West Femto Maximum Sensitivity substrate) and blots were visualized with Bio-Rad ImageLab software on a Bio-Rad […] MP imaging system. […]

The target in the next test is T5, IDO1 in U87 cells (Homo sapiens, UniProt P14902).
T5 construct: endogenous in cells; host or cells: U87 cells, IDO1 induced with IFNγ
T5 sequence (P14902 whole entry): as above
The test can be described thus: PROTAC-induced IDO1 degradation in U87 cells by Western blot. The class given is cell-based. Conditions: 24 h. As to the method: as §5, §6, §7
(In general: A western blot detects proteins with antibodies after separation by electrophoresis.)

The next test concerns kynurenine in U87 cells. The test can be described thus: Kynurenine assay (Ehrlich's reagent) in U87 cells. Conditions: indicated doses of compound. Format: cell-based. The procedure: as §5
Kynurenine levels in cell culture supernatants were measured using Erhlich's reagent. Briefly, cell culture supernatants were incubated with a 10% final concentration of trichloroacetic acid in Eppendorf tubes for 20 min at 60° C. to release kynurenine from cells and to precipitate proteins. After 20 minutes, samples were centrifuged for 20 min at 2500×g and supernatants were mixed with 20 mg/mL 4-dimethylamino benzaldehyde in acetic acid (Sigma Aldrich) at a 1:1 ratio and absorbance was measured at 480 nm using a plate reader.

The mark [3] stands for this setting: levels of IDO1 quantified from Western blot.

The pKd is the negative decadic logarithm of the Kd, by convention in mol/L. Usually DC50 stands for the concentration giving 50% degradation. Low readings indicate degradation at low concentration, high ones degradation only at high concentration.

pKd: −log10 of the molar value.

T3 sequence (P14902 whole entry): as above
T1 sequence (P14902 whole entry): as above
T1 sequence (Q96SW2 whole entry): as the sequence (Q96SW2 whole entry) above

With `C[C@@H](C(=O)Nc1ccc(Cl)c(OC2CCN(C(=O)CN3CCC(CN4CCN(c5ccc6c(c5)C(=O)N(C5CCC(=O)NC5=O)C6=O)CC4)CC3)CC2)c1)[C@H]1CC[C@@H](c2ccnc3ccc(F)cc32)CC1` (stereo partly drawn) [NU227164, (2R)-N-(4-chloro-3-((1-(2-(4-((4-(2-(2,6-dioxopiperidin-3-yl)-1,3-dioxoisoindolin-5-yl)piperazin-1-yl)methyl)piperidin-1-yl)acetyl)piperidin-4-yl)oxy)phenyl)-2-((1s,4,S)-4-(6-fluoroquinolin-4-yl)cyclohexyl)propanamide], the negative logarithm of the Kd (pKd) in test [1] was 6.89; on cereblon (CRBN) protein, 6.51; in test [2] it was 6.37.

For the molecule `C[C@@H](C(=O)Nc1ccc(Cl)c(OC2CCN(C(=O)CN3CCC(N4CCN(c5ccc6c(c5)C(=O)N(C5CCC(=O)NC5=O)C6=O)CC4)CC3)CC2)c1)[C@H]1CC[C@@H](c2ccnc3ccc(F)cc32)CC1` (stereo partly drawn) [NU227168, (2R)-N-(4-chloro-3-((1-(2-(4-(4-(2-(2,6-dioxopiperidin-3-yl)-1,3-dioxoisoindolin-5-yl)piperazin-1-yl)piperidin-1-yl)acetyl)piperidin-4-yl)oxy)phenyl)-2-((1s,4S)-4-(6-fluoroquinolin-4-yl)cyclohexyl)propanamide], the pKd in test [1] was 7.06; on cereblon (CRBN) protein, 6.72; in test [2], 6.47.

Turning to `C[C@@H](C(=O)Nc1ccc(Cl)c(OC2CCN(C(=O)C3CCN(C[C@H]4CC[C@H](Nc5ccc6c(c5)C(=O)N(C5CCC(=O)NC5=O)C6=O)CC4)CC3)CC2)c1)[C@H]1CC[C@@H](c2ccnc3ccc(F)cc32)CC1` (stereo partly drawn) [NU227199, (2R)-N-(4-chloro-3-((1-(1-(((1r,4r)-4-((2-(2,6-dioxopiperidin-3-yl)-1,3-dioxoisoindolin-5-yl)amino)cyclohexyl)methyl)piperidine-4-carbonyl)piperidin-4-yl)oxy)phenyl)-2-((1s,4S)-4-(6-fluoroquinolin-4-yl)cyclohexyl)propanamide], the pKd in test [1] is 6.16; at cereblon (CRBN) protein it was 5.80; in test [2], 5.68.

As for `C[C@@H](C(=O)Nc1cccc(OC2CCN(C(=O)CN3CCC(N4CCN(c5ccc6c(c5)C(=O)N(C5CCC(=O)NC5=O)C6=O)CC4)CC3)CC2)c1)[C@H]1CC[C@@H](c2ccnc3ccc(F)cc32)CC1` (stereo partly drawn) [NU227326, (2R)-N-(3-((1-(2-(4-(4-(2-(2,6-dioxopiperidin-3-yl)-1,3-dioxoisoindolin-5-yl)piperazin-1-yl)piperidin-1l-yl)acetyl)piperidin-4-yl)oxy)phenyl)-2-((1s,4S)-4-(6-fluoroquinolin-4-yl)cyclohexyl)propanamide], the “IDO1 degradation by Western blotting” value on IDO1 in GBM43 cells (indicated concentrations) is “potent and dose-dependent degradation of IDO1”; on IDO1 in U87 cells (indicated concentrations) it was “dose-dependent IDO1 degradation”. Also, the figures for the DC50 at IDO1 in GBM43 cells (setting [3]) and on IDO1 in U87 cells (setting [3]) were 0.0203 µM and 0.0104 µM, respectively. Moreover, the pKd in test [1] is 6.49; at cereblon (CRBN) protein, 6.42; in test [2], 6.85. In addition, in the test on kynurenine in U87 cells, the concentration of kynurenine entry is recorded as “strong reduction of cellular kynurenine”.

In the case of `C[C@@H](C(=O)Nc1cccc(OC2CCN(C(=O)CN3CCC(CN4CCN(c5ccc6c(c5)C(=O)N(C5CCC(=O)NC5=O)C6=O)CC4)CC3)CC2)c1)[C@H]1CC[C@@H](c2ccnc3ccc(F)cc32)CC1` (stereo partly drawn) [NU227327, (2R)-N-(3-((1-(2-(4-((4-(2-(2,6-dioxopiperidin-3-yl)-1,3-dioxoisoindolin-5-yl)piperazin-1-yl)methyl)piperidin-1-yl)acetyl)piperidin-4-yl)oxy)phenyl)-2-((1s,4S)-4-(6-fluoroquinolin-4-yl)cyclohexyl)propanamide], the pKd in test [1] is 6.00; on cereblon (CRBN) protein it was 6.28; in test [2] it was 6.43. The concentration of kynurenine entry with kynurenine in U87 cells is recorded as “strong reduction of cellular kynurenine”.

Consider “(2R)-N-(4-((1-(1-(2-((2-(2,6-dioxopiperidin-3-yl)-1,3-dioxoisoindolin-5-yl)amino)ethoxy)ethyl)piperidine-4-carbonyl)piperidin-4-yl)oxy)phenyl)-2-((1s,4S)-4-(6-fluoroquinolin-4-yl)cyclohexyl)propanamide [NU227191]”, for which the “IDO1-PROTAC-CRBN Ternary Kd” value in test [1] is reported as “could not obtain”. Further, the pKd at cereblon (CRBN) protein is 5.29; in test [2] it was 4.92.
